Experimental data published in PMC5218480 (PLoS ONE, 2017).

Tested on: MV-4-11 cells
Test: Gene expression microarray analysis (Affymetrix PrimeView) and GSEA
Assay type: cell-based, human
Set-up: RFU PODN (11730768_x_at) / Fold change /veh PODN (11730768_x_at) / RFU LINC00158 (11744669_a_at) / Fold change /veh LINC00158 (11744669_a_at) / RFU DUSP10 (11751237_a_at) / Fold change /veh DUSP10 (11751237_a_at) / RFU ID3 (11757404_x_at) / Fold change /veh ID3 (11757404_x_at) / RFU PLEKHG5 (11737974_s_at) / Fold change /veh PLEKHG5 (11737974_s_at) / RFU LRRC4B (11730491_at) / Fold change /veh LRRC4B (11730491_at) / RFU GIMAP4 (11747438_a_at) / Fold change /veh GIMAP4 (11747438_a_at) / RFU KRT8 (11758183_x_at) / Fold change /veh KRT8 (11758183_x_at) / RFU CNN1 (11734310_a_at) / Fold change /veh CNN1 (11734310_a_at) / RFU VPS37D (11726825_at) / Fold change /veh VPS37D (11726825_at) / RFU C10orf10 (11716522_x_at) / Fold change /veh C10orf10 (11716522_x_at) / RFU KIR2DL2 /// KIR2DL4 /// KIR2DL5A /// KIR2DL5B /// KIR2DS1 /// KIR2DS2 /// KIR2DS3 /// KIR2DS4 /// KIR3DL3 /// KIR3DL3 /// KIR3DS1 (11738374_at) / Fold change /veh KIR2DL2 /// KIR2DL4 /// KIR2DL5A /// KIR2DL5B /// KIR2DS1 /// KIR2DS2 /// KIR2DS3 /// KIR2DS4 /// KIR3DL3 /// KIR3DL3 /// KIR3DS1 (11738374_at) / RFU C1QL1 (11718748_at) / Fold change /veh C1QL1 (11718748_at) / RFU TMPRSS4 (11747572_a_at) / Fold change /veh TMPRSS4 (11747572_a_at) / RFU HAMP (11756126_x_at) / Fold change /veh HAMP (11756126_x_at) / RFU RNFT2 (11725882_a_at) / Fold change /veh RNFT2 (11725882_a_at) / RFU NR4A2 (11747474_a_at) / Fold change /veh NR4A2 (11747474_a_at) / RFU ABCC12 (11746883_a_at) / Fold change /veh ABCC12 (11746883_a_at) / RFU TMEM136 (11760407_x_at) / Fold change /veh TMEM136 (11760407_x_at) / RFU CLDN22 /// WWC2 (11732394_at) / Fold change /veh CLDN22 /// WWC2 (11732394_at) / RFU HLA-DPB1 (11760878_x_at) / Fold change /veh HLA-DPB1 (11760878_x_at) / RFU SPINT1 (11716480_a_at) / Fold change /veh SPINT1 (11716480_a_at) / RFU GAP43 (11754022_s_at) / Fold change /veh GAP43 (11754022_s_at) / RFU A4GNT (11735810_at) / Fold change /veh A4GNT (11735810_at) / RFU PRB3 (11715151_x_at) / Fold change /veh PRB3 (11715151_x_at) / RFU TUBB4B (11761932_at) / Fold change /veh TUBB4B (11761932_at) / RFU CAPN14 (11732068_a_at) / Fold change /veh CAPN14 (11732068_a_at) / RFU TMCC2 (11721928_a_at) / Fold change /veh TMCC2 (11721928_a_at) / RFU IRGQ (11745062_a_at) / Fold change /veh IRGQ (11745062_a_at) / RFU FAM174B (11720279_a_at) / Fold change /veh FAM174B (11720279_a_at) / RFU TMPRSS4 (11748680_a_at) / Fold change /veh TMPRSS4 (11748680_a_at) / RFU FAM212B (11763350_a_at) / Fold change /veh FAM212B (11763350_a_at) / RFU PLEKHG5 (11743358_a_at) / Fold change /veh PLEKHG5 (11743358_a_at) / RFU ZSCAN30 (11745921_a_at) / Fold change /veh ZSCAN30 (11745921_a_at) / RFU CMKLR1 (11741424_a_at) / Fold change /veh CMKLR1 (11741424_a_at) / RFU LOC101060620 /// MAPK8IP1 (11723275_at) / Fold change /veh LOC101060620 /// MAPK8IP1 (11723275_at) / RFU SPTSSB (11747773_x_at) / Fold change /veh SPTSSB (11747773_x_at) / RFU PRSS12 (11739890_at) / Fold change /veh PRSS12 (11739890_at) / RFU BIN1 (11741810_x_at) / Fold change /veh BIN1 (11741810_x_at) / RFU WNT11 (11732464_a_at) / Fold change /veh WNT11 (11732464_a_at) / RFU C10orf10 (11716521_a_at) / Fold change /veh C10orf10 (11716521_a_at) / RFU C5orf56 (11738089_at) / Fold change /veh C5orf56 (11738089_at) / RFU CYB561 (11721691_x_at) / Fold change /veh CYB561 (11721691_x_at) / RFU ANKRD19P (11752326_a_at) / Fold change /veh ANKRD19P (11752326_a_at) / RFU OR2T12 /// OR2T33 /// OR2T8 (11738714_s_at) / Fold change /veh OR2T12 /// OR2T33 /// OR2T8 (11738714_s_at) / RFU VCAN (11748164_a_at) / Fold change /veh VCAN (11748164_a_at) / RFU JSRP1 (11732532_at) / Fold change /veh JSRP1 (11732532_at) / RFU KRTAP10-11 (11738290_x_at) / Fold change /veh KRTAP10-11 (11738290_x_at) / RFU MYO3A (11730013_a_at) / Fold change /veh MYO3A (11730013_a_at) / RFU EBF3 (11725865_a_at) / Fold change /veh EBF3 (11725865_a_at) / RFU CAMK2N1 (11719241_x_at) / Fold change /veh CAMK2N1 (11719241_x_at) / RFU C5orf56 (11738088_a_at) / Fold change /veh C5orf56 (11738088_a_at) / RFU OLFML3 (11715873_a_at) / Fold change /veh OLFML3 (11715873_a_at) / RFU LOC100653217 /// NTM (11731650_a_at) / Fold change /veh LOC100653217 /// NTM (11731650_a_at) / RFU MAPK11 (11762145_a_at) / Fold change /veh MAPK11 (11762145_a_at) / RFU FIZ1 (11724087_x_at) / Fold change /veh FIZ1 (11724087_x_at) / RFU OASL (11726364_x_at) / Fold change /veh OASL (11726364_x_at) / RFU SOX15 (11748057_x_at) / Fold change /veh SOX15 (11748057_x_at) / RFU CD79A (11719716_a_at) / Fold change /veh CD79A (11719716_a_at) / RFU HIST1H1D (11736915_at) / Fold change /veh HIST1H1D (11736915_at) / RFU CASKIN2 (11723855_a_at) / Fold change /veh CASKIN2 (11723855_a_at) / RFU LOC730098 (11760151_x_at) / Fold change /veh LOC730098 (11760151_x_at) / RFU OR4N2 (11742367_at) / Fold change /veh OR4N2 (11742367_at) / RFU PRRT2 (11749266_a_at) / Fold change /veh PRRT2 (11749266_a_at) / RFU SNX32 (11753110_a_at) / Fold change /veh SNX32 (11753110_a_at) / RFU CDHR5 (11726645_a_at) / Fold change /veh CDHR5 (11726645_a_at) / RFU RCAN1 (11760418_a_at) / Fold change /veh RCAN1 (11760418_a_at) / RFU FAM167A (11723789_a_at) / Fold change /veh FAM167A (11723789_a_at) / RFU FAM26E (11764081_at) / Fold change /veh FAM26E (11764081_at) / RFU ISYNA1 (11749810_s_at) / Fold change /veh ISYNA1 (11749810_s_at) / RFU ACY1 (11761880_at) / Fold change /veh ACY1 (11761880_at) / RFU 11764098_at / Fold change /veh 11764098_at / RFU SAMD14 (11745864_x_at) / Fold change /veh SAMD14 (11745864_x_at) / RFU NPB (11741838_a_at) / Fold change /veh NPB (11741838_a_at) / RFU TMPRSS6 (11731388_a_at) / Fold change /veh TMPRSS6 (11731388_a_at) / RFU KRTAP10-2 (11738614_at) / Fold change /veh KRTAP10-2 (11738614_at) / RFU ARHGAP8 /// PRR5-ARHGAP8 (11727945_x_at) / Fold change /veh ARHGAP8 /// PRR5-ARHGAP8 (11727945_x_at) / RFU KRTAP5-7 /// NADSYN1 (11734609_at) / Fold change /veh KRTAP5-7 /// NADSYN1 (11734609_at) / RFU RASL12 (11751679_a_at) / Fold change /veh RASL12 (11751679_a_at) / RFU CDKN2B (11736163_a_at) / Fold change /veh CDKN2B (11736163_a_at) / RFU PRF1 (11729649_at) / Fold change /veh PRF1 (11729649_at) / RFU, ZNF638 /// ZNF638-IT1 / Fold change vs veh, ZNF638 /// ZNF638-IT1 / RFU, PANK3 / Fold change vs veh, PANK3 / RFU, SH3YL1 / Fold change vs veh, SH3YL1 / RFU, ZEB2 / Fold change vs veh, ZEB2 / RFU, NRIP1 / Fold change vs veh, NRIP1 / RFU, PTTG1IP / Fold change vs veh, PTTG1IP / RFU, CAPN2 / Fold change vs veh, CAPN2 / RFU, MED14 / Fold change vs veh, MED14 / RFU, SNORA58 / Fold change vs veh, SNORA58 / RFU, C1orf63 / Fold change vs veh, C1orf63 / RFU, LRRFIP1 / Fold change vs veh, LRRFIP1 / RFU, NDUFAF7 / Fold change vs veh, NDUFAF7 / RFU, SLC12A2 / Fold change vs veh, SLC12A2 / RFU, IBTK / Fold change vs veh, IBTK / RFU, ESF1 / Fold change vs veh, ESF1 / Fold change vs veh, TMEM50B / RFU, TAOK1 / Fold change vs veh, TAOK1 / RFU, ACBD3 / Fold change vs veh, ACBD3 / RFU, TMA16 / Fold change vs veh, TMA16 / RFU, RWDD3 / Fold change vs veh, RWDD3 / RFU, BCAT1 / Fold change vs veh, BCAT1 / RFU, EDEM3 / Fold change vs veh, EDEM3 / RFU, TMEM33 / Fold change vs veh, TMEM33 / RFU, WDR75 / Fold change vs veh, WDR75 / RFU, AHCTF1 / Fold change vs veh, AHCTF1 / RFU, TFRC / Fold change vs veh, TFRC / RFU, ZDHHC17 / Fold change vs veh, ZDHHC17 / RFU, NOM1 / Fold change vs veh, NOM1 / RFU, ARL8B / Fold change vs veh, ARL8B / RFU, ZBTB11 / Fold change vs veh, ZBTB11 / RFU, TAMM41 / Fold change vs veh, TAMM41 / RFU, KIAA1704 /// LOC100996395 / Fold change vs veh, KIAA1704 /// LOC100996395 / RFU, ING1 / Fold change vs veh, ING1 / RFU, TRMT61B / Fold change vs veh, TRMT61B / RFU, FUBP3 / Fold change vs veh, FUBP3 / RFU, TP53 / Fold change vs veh, TP53 / RFU, TNKS2 / Fold change vs veh, TNKS2 / RFU, ZFP14 / Fold change vs veh, ZFP14 / RFU, ACTR2 / Fold change vs veh, ACTR2 / RFU, PPP3R1 / Fold change vs veh, PPP3R1 / RFU, PIK3R1 / Fold change vs veh, PIK3R1 / RFU, HNRNPA1 / Fold change vs veh, HNRNPA1 / RFU, RNF170 / Fold change vs veh, RNF170 / RFU, ZNF28 / Fold change vs veh, ZNF28 / RFU, RNGTT / Fold change vs veh, RNGTT / RFU, OGT / Fold change vs veh, OGT / RFU, BRD1 / Fold change vs veh, BRD1 / RFU, MARS / Fold change vs veh, MARS / RFU, ZNF655 / Fold change vs veh, ZNF655 / RFU, FAHD1 / Fold change vs veh, FAHD1 / RFU, BDP1 / Fold change vs veh, BDP1 / RFU, LRRCC1 / Fold change vs veh, LRRCC1 / RFU, ARID1A / Fold change vs veh, ARID1A / RFU, ZNF146 / Fold change vs veh, ZNF146 / RFU, ZNF330 / Fold change vs veh, ZNF330 / RFU, GPN3 / Fold change vs veh, GPN3 / RFU, C9orf123 / Fold change vs veh, C9orf123 / RFU, N4BP2L2 / Fold change vs veh, N4BP2L2 / RFU, ARFIP1 / Fold change vs veh, ARFIP1 / RFU, FAM179B / Fold change vs veh, FAM179B / RFU, BCL10 / Fold change vs veh, BCL10 / RFU, UHRF1BP1L / Fold change vs veh, UHRF1BP1L / RFU, BET1 / Fold change vs veh, BET1 / RFU, CNOT2 / Fold change vs veh, CNOT2 / RFU, ZNF268 / Fold change vs veh, ZNF268 / Fold change vs veh, ZNF507 / RFU, DGCR2 / Fold change vs veh, DGCR2 / RFU, WDSUB1 / Fold change vs veh, WDSUB1 / Fold change vs veh, HSP90B1 /// MIR3652 / RFU, ADSS / Fold change vs veh, ADSS / RFU, GK / Fold change vs veh, GK / RFU, ZNF148 / Fold change vs veh, ZNF148 / RFU, TAF9 / Fold change vs veh, TAF9 / RFU, SLC1A5 / Fold change vs veh, SLC1A5 / RFU, SLMO2 / Fold change vs veh, SLMO2 / RFU, ABCC4 / Fold change vs veh, ABCC4 / RFU, LOC101060439 /// RAP1B / Fold change vs veh, LOC101060439 /// RAP1B / RFU, RFX7 / Fold change vs veh, RFX7 / RFU, GTPBP10 / Fold change vs veh, GTPBP10 / RFU, CNEP1R1 / Fold change vs veh, CNEP1R1 / RFU, BIVM-ERCC5 /// ERCC5 / Fold change vs veh, BIVM-ERCC5 /// ERCC5 / RFU, ILF3 / Fold change vs veh, ILF3 / RFU 11762660_at / Fold change /veh 11762660_at / RFU VCAN (11757783_s_at) / Fold change /veh VCAN (11757783_s_at) / RFU DDX43 (11728927_at) / Fold change /veh DDX43 (11728927_at) / RFU KRT8 (11758188_x_at) / Fold change /veh KRT8 (11758188_x_at) / RFU NKD1 (11759106_at) / Fold change /veh NKD1 (11759106_at) / RFU SRD5A1 (11742802_a_at) / Fold change /veh SRD5A1 (11742802_a_at) / RFU TPSAB1 /// TPSB2 (11721975_s_at) / Fold change /veh TPSAB1 /// TPSB2 (11721975_s_at) / RFU GSTM3 (11746129_a_at) / Fold change /veh GSTM3 (11746129_a_at) / RFU IL23R (11737362_x_at) / Fold change /veh IL23R (11737362_x_at) / RFU TMEM51 (11727254_a_at) / Fold change /veh TMEM51 (11727254_a_at) / RFU PIWIL2 (11732686_x_at) / Fold change /veh PIWIL2 (11732686_x_at) / RFU ORM1 (11744905_x_at) / Fold change /veh ORM1 (11744905_x_at) / RFU CCDC152 (11743942_at) / Fold change /veh CCDC152 (11743942_at) / RFU ECM1 (11717891_a_at) / Fold change /veh ECM1 (11717891_a_at) / RFU IL23R (11748794_a_at) / Fold change /veh IL23R (11748794_a_at) / RFU TNFAIP8L3 (11732012_x_at) / Fold change /veh TNFAIP8L3 (11732012_x_at) / RFU MBOAT4 (11741988_at) / Fold change /veh MBOAT4 (11741988_at) / RFU 11764193_at / Fold change /veh 11764193_at / RFU TMEM53 (11763286_at) / Fold change /veh TMEM53 (11763286_at) / RFU MAGEB2 (11727129_at) / Fold change /veh MAGEB2 (11727129_at) / RFU TMEM200A (11744735_a_at) / Fold change /veh TMEM200A (11744735_a_at) / RFU CCDC152 (11751479_a_at) / Fold change /veh CCDC152 (11751479_a_at) / RFU FAM211A (11726209_a_at) / Fold change /veh FAM211A (11726209_a_at) / RFU RGS16 (11746705_a_at) / Fold change /veh RGS16 (11746705_a_at) / RFU VCAN (11755009_s_at) / Fold change /veh VCAN (11755009_s_at) / RFU RHOB (11743442_s_at) / Fold change /veh RHOB (11743442_s_at) / RFU RGS16 (11720943_a_at) / Fold change /veh RGS16 (11720943_a_at) / RFU RGS16 (11720944_at) / Fold change /veh RGS16 (11720944_at) / RFU, VPS4B / Fold change vs veh, VPS4B / RFU, CREB1 / Fold change vs veh, CREB1 / RFU, DNAJC13 / Fold change vs veh, DNAJC13 / RFU, GNAQ / Fold change vs veh, GNAQ / RFU, CDK5R1 / Fold change vs veh, CDK5R1 / RFU, ZRANB3 / Fold change vs veh, ZRANB3 / RFU, CUL4A / Fold change vs veh, CUL4A / RFU, CCNY / Fold change vs veh, CCNY / RFU, UFL1 / Fold change vs veh, UFL1 / RFU, COG3 / Fold change vs veh, COG3 / RFU, DIAPH2 / Fold change vs veh, DIAPH2 / RFU, SKA2 / Fold change vs veh, SKA2 / RFU, AFF3 / Fold change vs veh, AFF3 / RFU, LMF1 / Fold change vs veh, LMF1 / RFU, IPO11 / Fold change vs veh, IPO11 / RFU, DFFB / Fold change vs veh, DFFB / RFU, FOXP1 / Fold change vs veh, FOXP1 / RFU, CARD8 / Fold change vs veh, CARD8 / RFU, STRN3 / Fold change vs veh, STRN3 / RFU, ADK / Fold change vs veh, ADK / RFU, RASSF2 / Fold change vs veh, RASSF2 / RFU, WIPF1 / Fold change vs veh, WIPF1 / RFU, LARP1B / Fold change vs veh, LARP1B / RFU, RASA1 / Fold change vs veh, RASA1 / RFU, RB1 / Fold change vs veh, RB1 / RFU, PPFIA1 / Fold change vs veh, PPFIA1 / RFU, MAT2A / Fold change vs veh, MAT2A / RFU, CCT5 / Fold change vs veh, CCT5 / RFU, WDR92 / Fold change vs veh, WDR92 / RFU, CUX1 / Fold change vs veh, CUX1 / RFU, TTC7A / Fold change vs veh, TTC7A / RFU, TMEM135 / Fold change vs veh, TMEM135 / RFU, DEPTOR / Fold change vs veh, DEPTOR / RFU, CPM / Fold change vs veh, CPM / RFU, DNAJB6 / Fold change vs veh, DNAJB6 / RFU, CACNA2D3 / Fold change vs veh, CACNA2D3 / RFU, DTX4 / Fold change vs veh, DTX4 / RFU, TFCP2 / Fold change vs veh, TFCP2 / RFU, GMCL1 /// GMCL1P1 / Fold change vs veh, GMCL1 /// GMCL1P1 / RFU, AEBP2 / Fold change vs veh, AEBP2 / RFU, SNHG1 /// SNORD22 /// SNORD25 /// SNORD26 /// SNORD27 /// SNORD28 /// SNORD29 /// SNORD31 / Fold change vs veh, SNHG1 /// SNORD22 /// SNORD25 /// SNORD26 /// SNORD27 /// SNORD28 /// SNORD29 /// SNORD31 / Fold change (Aza/veh), C12orf56 (ProbeSet 11735607_a_at) / Fold change (ACY-1035/veh), C12orf56 (ProbeSet 11735607_a_at) / Fold change (Aza/veh), FGFR1OP (ProbeSet 11751329_s_at) / Fold change (ACY-1035/veh), FGFR1OP (ProbeSet 11751329_s_at) / Fold change (Aza/veh), VPS36 (ProbeSet 11739960_a_at) / Fold change (ACY-1035/veh), VPS36 (ProbeSet 11739960_a_at) / RFU SYPL1 (11715823_x_at) / Fold change /veh SYPL1 (11715823_x_at) / RFU IGFBP7 (11715501_s_at) / Fold change /veh IGFBP7 (11715501_s_at) / RFU REEP3 (11722064_at) / Fold change /veh REEP3 (11722064_at) / RFU IGLL1 (11728026_x_at) / Fold change /veh IGLL1 (11728026_x_at): dose or concentration left out as unconfirmed
Details: ProbeSet 11716865_a_at; LIST B

SMILES: Nc1ccc(-c2cccs2)cc1NC(=O)c1ccc2c(c1)cc(C1CC1)n2CCN1CCOCC1 [ACY-1035]
- RFU, SLC1A5: 252.35 RFU
